Assay results reported in article PMC12186753 (ACS pharmacology & translational science, 2025).
Where “and” joins values, the source holds several entries; their conditions need not be identical. Equal values may be shown once. Read-outs that look alike come from different tables or passages of the source.

Key:
plasmin [1] = target: T1, plasmin (Homo sapiens, UniProt P00747); experiment: Plasmin inhibition assay with chromogenic substrate S-2251 (Dixon plot, Cornish-Bowden plot); format: biochemical; details: for Mode of inhibition (Cornish-Bowden S/Vo vs I plot) / rpAMB (KiAMB/Kihetero) / rpTXA (KiTXA/Kihetero): plasmin; for Ki: read-out: Plasmin Ki, S-2251, 42.5 nM human plasmin, PBS pH 7.4, Dixon plot
T1 sequence (P00747 97-580 limits assumed): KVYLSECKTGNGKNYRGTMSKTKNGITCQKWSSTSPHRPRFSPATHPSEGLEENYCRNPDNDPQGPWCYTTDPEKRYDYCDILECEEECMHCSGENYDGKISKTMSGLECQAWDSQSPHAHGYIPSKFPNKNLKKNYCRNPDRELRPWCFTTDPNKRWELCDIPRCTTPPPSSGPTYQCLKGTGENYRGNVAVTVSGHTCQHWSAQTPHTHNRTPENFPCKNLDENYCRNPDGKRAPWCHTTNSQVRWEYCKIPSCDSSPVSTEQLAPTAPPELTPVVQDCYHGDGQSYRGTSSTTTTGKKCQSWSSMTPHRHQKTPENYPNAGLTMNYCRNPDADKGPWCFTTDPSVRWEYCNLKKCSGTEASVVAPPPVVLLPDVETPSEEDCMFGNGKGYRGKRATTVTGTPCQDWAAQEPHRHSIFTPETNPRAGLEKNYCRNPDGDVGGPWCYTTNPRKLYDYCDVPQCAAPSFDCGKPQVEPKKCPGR
T1 sequence (P00747 581-810 limits assumed): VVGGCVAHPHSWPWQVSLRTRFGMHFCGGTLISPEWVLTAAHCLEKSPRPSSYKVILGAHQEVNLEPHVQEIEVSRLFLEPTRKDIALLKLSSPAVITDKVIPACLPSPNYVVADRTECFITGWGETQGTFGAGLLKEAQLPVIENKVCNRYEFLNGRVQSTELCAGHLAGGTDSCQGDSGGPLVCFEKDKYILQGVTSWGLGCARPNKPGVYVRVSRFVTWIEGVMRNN

[2] = target: LBS on kringle domains of plasmin; details: cited from earlier work
plasmin [3] = details: read-out: Plasmin active site Ki reported in the literature; cited from earlier work
human tPA = human tPA (Homo sapiens, UniProt P00750); experiment: tPA inhibition assay with chromogenic substrate S-2288 (Dixon plot, Cornish-Bowden plot); format: biochemical; details: for Mode of inhibition (Cornish-Bowden S/Vo vs I plot): tPA; for Ki: S-2288, 75 nM human tPA, PBS pH 7.4, Dixon plot
Sequence of human tPA (P00750 36-562): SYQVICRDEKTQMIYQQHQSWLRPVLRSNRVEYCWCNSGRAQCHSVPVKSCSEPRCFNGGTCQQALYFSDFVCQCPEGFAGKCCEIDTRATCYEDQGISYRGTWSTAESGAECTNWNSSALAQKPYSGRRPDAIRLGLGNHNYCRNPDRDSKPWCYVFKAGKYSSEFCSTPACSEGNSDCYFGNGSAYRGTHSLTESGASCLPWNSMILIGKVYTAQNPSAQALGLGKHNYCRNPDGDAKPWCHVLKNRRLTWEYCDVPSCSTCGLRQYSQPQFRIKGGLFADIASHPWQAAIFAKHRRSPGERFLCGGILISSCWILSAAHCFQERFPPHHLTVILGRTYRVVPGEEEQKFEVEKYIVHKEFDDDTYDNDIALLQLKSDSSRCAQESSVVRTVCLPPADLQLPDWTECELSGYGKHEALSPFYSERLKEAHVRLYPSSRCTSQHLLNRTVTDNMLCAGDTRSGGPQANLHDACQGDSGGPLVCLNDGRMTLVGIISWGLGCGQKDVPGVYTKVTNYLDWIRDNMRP

human thrombin = human thrombin (Homo sapiens, UniProt P00734); experiment: Thrombin inhibition assay with fluorogenic Thrombin Substrate III (Dixon plot, Cornish-Bowden plot); format: biochemical; details: for Ki: TSIII, 0.25 U/mL human thrombin, PBS pH 7.4 at 10% DMSO, Dixon plot; for Mode of inhibition (Cornish-Bowden S/Vo vs I plot): thrombin
plasmin [4] = target: T1, plasmin; details: read-out: Plasmin Ki; S-2251, 42.5 nM human plasmin, Dixon plot; previously determined; cited from earlier work
plasmin [5] = target: T1, plasmin; experiment: Annular fibrin clot assay (FITC-tagged fibrin clot lysis by plasmin); format: biochemical; details: for IC50/Ki: annular clot IC50 over S-2251 plasmin Ki

| SMILES | Mode of inhibition (Cornish-Bowden S/Vo vs I plot) (plasmin [1]) | Mode of inhibition (Cornish-Bowden S/Vo vs I plot) (human tPA) | Ki (human thrombin; Thrombin Ki) | Mode of inhibition (Cornish-Bowden S/Vo vs I plot) (human thrombin) | Ki (plasmin [1]) | Ki (human tPA; read-out: tPA Ki) | Ki (human thrombin; read-out: Thrombin Ki) | rpAMB (KiAMB/Kihetero) (plasmin [1]) | rpTXA (KiTXA/Kihetero) (plasmin [1]) | further results |
| --- | --- | --- | --- | --- | --- | --- | --- | --- | --- | --- |
| NC[C@H]1CC[C@H](C(=O)O)CC1 [TXA, Tranexamic acid] | weak competitive inhibitor | – | – | – | – | – | – | – | – | Ki ([2]; read-out: Ki for LBS on the K1 domain of plasmin, K1 domain): 1.1 µM; Ki ([2]; read-out: Ki for the other plasmin kringle domain LBS, other kringle domains): ~750 µM; Ki (plasmin [3]): ~40 mM |
| NCCCCCC(=O)O [EACA, ɛ-aminocaproic acid, reference compound] | weak competitive inhibitor | weak competitive inhibitor | 65200 µM | competitive inhibitor | – | – | – | – | – | – |
| N=C(N)c1ccc(CNC(=O)CCOCCOCCOCCOCCNC(=O)CCCCCN)cc1 [EACA-dPEG4-AMB] | competitive inhibitor | competitive inhibitor | – | competitive inhibitor | 233 ± 5 µM | 501 µM | 4.05 µM and 4 µM | – | – | fold stronger inhibitor of thrombin than the TXA counterpart (human thrombin; EACA-dPEG4-AMB vs TXA-dPEG4-AMB, monovalent EACA vs monovalent TXA): 3 fold |
| N=C(N)c1ccc(C(=O)O)cc1 [4-carboxy benzamidine, reference compound] | – | – | 151 µM | competitive inhibitor | – | – | – | – | – | Ki (plasmin [4]): 292 ± 6.5 µM |
| N=C(N)c1ccc(OCCCCCOc2ccc(C(=N)N)cc2)cc1 [Pentamidine, reference compound] | – | competitive inhibitor | 4.48 µM and 4.5 µM | competitive inhibitor | – | – | – | – | – | Ki (human tPA; tPA Ki): 42.7 µM and 43 µM; IC50 (plasmin [5]): 3.2 ± 1 µM; IC50/Ki (plasmin [5]): 1.5 |
| N=C(N)c1ccc(N)cc1 [4-amino benzamidine, reference compound] | – | competitive inhibitor | – | competitive inhibitor | – | – | – | – | – | Ki (human tPA; tPA Ki): 148 µM; IC50 (plasmin [5]): 451 ± 70 µM; Ki (plasmin [4]): 51 ± 2.4 µM |
| N=C(N)c1ccc(CNC(=O)CN(CC(=O)NCc2ccc(C(=N)N)cc2)CC(=O)NCc2ccc(C(=N)N)cc2)cc1 [Tri-AMB] | – | competitive inhibitor | – | competitive inhibitor | – | 164 ± 17 µM | 10.7 µM and 11 µM | – | – | IC50 (plasmin [5]; read-out: Annular IC50, 850 nM plasmin, annular fibrin clot, from Vmax): 7.7 ± 3 µM |
| N=C(N)c1ccccc1 [Benzamidine, reference compound] | – | competitive inhibitor | – | competitive inhibitor | – | – | – | – | – | – |
| N=C(N)c1ccc(CN)cc1 [4-aminomethyl benzamidine, reference compound] | – | competitive inhibitor | 344 µM | competitive inhibitor | – | – | – | – | – | Ki (human tPA; tPA Ki): 5210 µM; IC50 (plasmin [5]): 32700 µM; IC50/Ki (plasmin [5]): 29.0; Ki (plasmin [4]): 1070 µM |
| N=C(N)c1ccc(CNC(=O)CCOCCOCCOCCOCCOCCOCCOCCOCCOCCOCCOCCOCCOCCOCCOCCOCCOCCOCCOCCOCCOCCOCCOCCOCCOCCOCCOCCOCCOCCOCCOCCOCCOCCOCCOCCOCCNC(=O)[C@H]2CC[C@H](CN)CC2)cc1 [TXA-dPEG36-AMB] | competitive inhibitor | not to be a solely competitive inhibitor | – | competitive inhibitor | 75.4 µM and 75 µM | 136 ± 0.7 µM | 77.5 µM and 78 µM | 14 | 285 | – |
| N=C(N)c1ccc(CNC(=O)CCOCCOCCOCCOCCOCCOCCOCCOCCNC(=O)[C@H]2CC[C@H](CN)CC2)cc1 [TXA-dPEG8-AMB] | competitive inhibitor | not to be a solely competitive inhibitor | – | competitive inhibitor | 99.4 µM and 99 µM | 292 ± 0.4 µM | 32.4 µM and 32 µM | 11 | 216 | – |
| N=C(N)c1ccc(CNC(=O)CCOCCOCCOCCOCCOCCOCCOCCOCCOCCOCCOCCOCCNC(=O)[C@H]2CC[C@H](CN)CC2)cc1 [TXA-dPEG12-AMB] | competitive inhibitor | competitive inhibitor | – | competitive inhibitor | 207 ± 4.1 µM | 641 µM | 45.7 µM and 46 µM | 5 | 103 | – |
| N=C(N)c1ccc(CNC(=O)CCOCCOCCOCCOCCNC(=O)[C@H]2CC[C@H](CN)CC2)cc1 [TXA-dPEG4-AMB] | competitive inhibitor | competitive inhibitor | – | competitive inhibitor | 42 ± 12 µM | 230 µM and 231 µM | 14.5 µM and 14 µM | 26 | 509 | – |
